The numbers were not newly measured in patent US20220142904A1, “A METHOD OF COLORING KERATINOUS MATERIAL COMPRISING THE USE OF AN ORGANOSILICON COMPOUND, A COLORING COMPOUND, A SEALING REAGENT, AND A MIXTURE OF SILICONES” (Henkel AG & Co. KGaA, priority 2019, published 2022), which cites them from elsewhere.

The conditions of this series: for solubility in water: 25° C.

With `O=C([O-])C1=NN(c2ccc(S(=O)(=O)[O-])cc2)C(=O)C1N=Nc1ccc(S(=O)(=O)[O-])cc1.[Na+].[Na+].[Na+]` (centres unmarked) [Acid Yellow 23, trisodium salt of 4,5-dihydro-5-oxo-1-(4-sulfophenyl)-4-((4-sulfophenyl)azo)-1H-pyrazole-3-carboxylic acid], the “solubility in water (in words)” value (water at 25° C.) is “highly soluble”.

Take `O=C([O-])c1c(Cl)c(Cl)c(Cl)c(Cl)c1-c1c2c(Br)cc(=O)c(Br)c-2oc2c(Br)c(O)cc(Br)c12.O=C([O-])c1c(Cl)c(Cl)c(Cl)c(Cl)c1-c1c2c(Br)cc(=O)c(Br)c-2oc2c(Br)c(O)cc(Br)c12.[Na+].[Na+]` [Acid Red 92, disodium salt of 3,4,5,6-tetrachloro-2-(1,4,5,8-tetrabromo-6-hydroxy-3-oxoxanthen-9-yl)benzoic acid]: the solubility in water entry is on record as “greater than 10 g/L”.

In the case of `Nc1cc(S(=O)(=O)[O-])cc2cc(S(=O)(=O)[O-])c(N=Nc3ccccc3)c(O)c12.[Na+].[Na+]` [Acid Red 33, disodium salt of 5-amino-4-hydroxy-3-(phenylazo)-naphthalene-2,7-disulphonate], the solubility in water is 2.5 mg/mL.

With “sodium salts of mono- and disulfonic acids of 2-(2-quinolyl)-1H-indene-1,3(2H)-dione [Acid Yellow 3]”, the solubility in water was 20 mg/mL.

Take `O=S(=O)([O-])c1ccc(N=Nc2c(O)ccc3ccccc23)cc1.[Na+]` [Acid Orange 7, sodium salt of 4-[(2-hydroxy-1-naphthyl)azo]benzene sulphonate]: the solubility in water result is listed as “more than 7 g/L”.
